According to the NIST ThermoML archive (doi:10.1021/je060190e):

Conditions: 101.33 kPa, Liquid

CCCCn1cc[n+](C)c1.COS(=O)(=O)[O-] [1-butyl-3-methylimidazolium methyl sulfate]
Conditions | mass density [kg/m3]
290.95 K | 1214.9
292.95 K | 1213.5
294.95 K | 1212.1
297 K | 1210.7
299 K | 1209.4
301 K | 1208
303 K | 1206.7
305 K | 1205.3
307.05 K | 1204
